ChEMBL document CHEMBL2007661, “Compounds: GSK PKIS; Assays: UNC Frye lab” (2012)
Several values for one entry are separate records, joined by “and”; a condition that tells them apart may be missing. Equal entries are not always repeated.

Assays:
[1] = molecular target: T1, Serine/threonine-protein kinase TBK1 (Homo sapiens) (UniProt Q9UHD2); conditions: at 1 µM
T1 sequence (whole entry): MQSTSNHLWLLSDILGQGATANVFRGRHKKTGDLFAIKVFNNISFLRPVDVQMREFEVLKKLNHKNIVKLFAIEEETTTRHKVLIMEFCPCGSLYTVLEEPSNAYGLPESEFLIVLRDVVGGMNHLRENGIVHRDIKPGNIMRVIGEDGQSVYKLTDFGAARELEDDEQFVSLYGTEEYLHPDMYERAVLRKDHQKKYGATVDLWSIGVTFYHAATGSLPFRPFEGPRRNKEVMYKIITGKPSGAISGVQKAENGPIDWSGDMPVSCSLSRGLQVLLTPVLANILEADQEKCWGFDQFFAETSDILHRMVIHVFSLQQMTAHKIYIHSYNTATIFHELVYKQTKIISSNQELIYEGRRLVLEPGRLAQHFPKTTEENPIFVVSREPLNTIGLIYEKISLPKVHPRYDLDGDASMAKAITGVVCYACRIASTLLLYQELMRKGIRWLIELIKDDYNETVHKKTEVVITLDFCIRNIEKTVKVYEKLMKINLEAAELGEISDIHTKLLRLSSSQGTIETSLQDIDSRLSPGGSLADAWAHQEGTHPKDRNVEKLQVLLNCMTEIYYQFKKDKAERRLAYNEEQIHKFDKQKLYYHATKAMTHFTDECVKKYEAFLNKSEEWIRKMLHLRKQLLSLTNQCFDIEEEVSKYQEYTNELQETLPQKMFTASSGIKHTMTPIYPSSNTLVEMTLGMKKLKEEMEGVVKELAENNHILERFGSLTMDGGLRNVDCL

[2] = molecular target: T2, Tyrosine-protein kinase Mer (Homo sapiens) (UniProt Q12866); conditions: at 10 µM
T2 sequence (whole entry): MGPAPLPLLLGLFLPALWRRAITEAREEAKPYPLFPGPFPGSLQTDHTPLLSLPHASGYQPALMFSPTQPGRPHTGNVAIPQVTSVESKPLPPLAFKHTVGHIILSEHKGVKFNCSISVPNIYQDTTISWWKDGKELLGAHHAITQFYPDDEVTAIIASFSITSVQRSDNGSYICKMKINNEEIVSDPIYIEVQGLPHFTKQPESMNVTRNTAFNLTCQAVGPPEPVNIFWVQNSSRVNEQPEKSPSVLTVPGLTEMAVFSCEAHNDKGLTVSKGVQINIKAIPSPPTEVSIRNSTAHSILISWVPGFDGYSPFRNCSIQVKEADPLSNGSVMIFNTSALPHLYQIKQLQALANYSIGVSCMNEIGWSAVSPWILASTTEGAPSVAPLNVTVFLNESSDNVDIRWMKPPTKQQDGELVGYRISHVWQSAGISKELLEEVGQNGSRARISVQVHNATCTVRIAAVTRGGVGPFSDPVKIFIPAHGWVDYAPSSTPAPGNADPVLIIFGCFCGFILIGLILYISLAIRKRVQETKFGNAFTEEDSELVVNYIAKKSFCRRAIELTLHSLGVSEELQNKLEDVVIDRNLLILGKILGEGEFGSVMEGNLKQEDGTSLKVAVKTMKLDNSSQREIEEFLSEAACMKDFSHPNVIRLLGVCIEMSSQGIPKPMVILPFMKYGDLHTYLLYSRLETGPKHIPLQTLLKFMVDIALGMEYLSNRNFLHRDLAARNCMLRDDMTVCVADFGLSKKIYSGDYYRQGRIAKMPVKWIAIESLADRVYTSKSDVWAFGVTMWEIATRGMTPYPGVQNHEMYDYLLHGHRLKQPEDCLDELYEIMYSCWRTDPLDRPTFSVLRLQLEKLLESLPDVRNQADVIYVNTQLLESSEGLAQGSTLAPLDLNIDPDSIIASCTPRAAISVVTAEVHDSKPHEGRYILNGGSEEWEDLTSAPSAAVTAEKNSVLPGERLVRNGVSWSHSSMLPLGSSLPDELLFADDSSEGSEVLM

inhibition [1]	inhibition [2]	SMILES
1% and 2%	25%	COc1cccc(-n2ncc3c(N/N=C/c4ccc(C)cc4)ncnc32)c1
20% and 30%	5%	COc1cccc(-n2ncc3c(N/N=C/c4ccc(S(C)(=O)=O)cc4)ncnc32)c1
1% and -1%	-4%	CC1=C(C(=O)Nc2ccc3[nH]ncc3c2)C(c2ccc(F)cc2)N=C(c2ccc(C(F)(F)F)nc2)N1 (stereo unspecified)
